These results are taken from patent publication US5238921A, “Oligopeptide, angiotensin converting enzyme inhibitors, hypotensive agent, and method for treatment of hypertension” (Agency of Industrial Science and Technology, priority 1990, dated 1993).

Non-standard residues stand in square brackets, D forms with d. Residues, ends and D or L forms follow the SMILES beside them.

The first assay deals with spontaneous hypertensive rats (SHR). In words: Hypotensive activity in spontaneous hypertensive rats (Tail-Cuff method). The settings on record: 120 mg/kg intraperitoneally, maximum blood pressure before minus after administration ± S.E., p < 0.01 against saline control. It is filed as in vivo, rat. On the procedure:
10-week old spontaneous hypertensive rats (SHR) (produced BY Nihon Rat Co., Ltd.,.male., weight 240 to 280 g, 4 to 6 animals per 1 group) were used as test animals. L-Leu-L-Arg-L-Pro obtained as in Example 12 was dissolved in physiological saline and 120 mg in terms of the effective ingredient of the solution was intraperitoneally administered per kg of animal. As control physiological saline was intraperitoneally administered. Blood pressure was measured before the administration and at regular intervals of time after the administration by the Tail-Cuff method using a bloodless sphygmomanometer for rats and mice TK-350 (produced by Unicom Co., Ltd.)
The results were shown in Table 2 by (Maximum blood pressure value before the administration-Maximum blood pressure value after the administration) ± S.E.
As for `CC(C)C[C@H](N)C(=O)N[C@@H](CCCNC(=N)N)C(=O)N1CCC[C@H]1C(=O)O` [L--Leu--L--Arg--L--Pro, L-Leu-L-Arg-L-Pro] (H-Leu-Arg-Pro-OH), the “Lowering of blood pressure (mm Hg) 5 hours later” value is given as 14 ± 5 mm Hg.

A further assay deals with T1, angiotensin converting enzyme (Oryctolagus cuniculus, UniProt P12822).
T1 construct: the supernatant was further purified with hydroxyapatite to obtain an angiotensin converting enzyme solution; from tissue; host or cells: rabbit lung (acetone powder)
T1 sequence (P12822 34-1310): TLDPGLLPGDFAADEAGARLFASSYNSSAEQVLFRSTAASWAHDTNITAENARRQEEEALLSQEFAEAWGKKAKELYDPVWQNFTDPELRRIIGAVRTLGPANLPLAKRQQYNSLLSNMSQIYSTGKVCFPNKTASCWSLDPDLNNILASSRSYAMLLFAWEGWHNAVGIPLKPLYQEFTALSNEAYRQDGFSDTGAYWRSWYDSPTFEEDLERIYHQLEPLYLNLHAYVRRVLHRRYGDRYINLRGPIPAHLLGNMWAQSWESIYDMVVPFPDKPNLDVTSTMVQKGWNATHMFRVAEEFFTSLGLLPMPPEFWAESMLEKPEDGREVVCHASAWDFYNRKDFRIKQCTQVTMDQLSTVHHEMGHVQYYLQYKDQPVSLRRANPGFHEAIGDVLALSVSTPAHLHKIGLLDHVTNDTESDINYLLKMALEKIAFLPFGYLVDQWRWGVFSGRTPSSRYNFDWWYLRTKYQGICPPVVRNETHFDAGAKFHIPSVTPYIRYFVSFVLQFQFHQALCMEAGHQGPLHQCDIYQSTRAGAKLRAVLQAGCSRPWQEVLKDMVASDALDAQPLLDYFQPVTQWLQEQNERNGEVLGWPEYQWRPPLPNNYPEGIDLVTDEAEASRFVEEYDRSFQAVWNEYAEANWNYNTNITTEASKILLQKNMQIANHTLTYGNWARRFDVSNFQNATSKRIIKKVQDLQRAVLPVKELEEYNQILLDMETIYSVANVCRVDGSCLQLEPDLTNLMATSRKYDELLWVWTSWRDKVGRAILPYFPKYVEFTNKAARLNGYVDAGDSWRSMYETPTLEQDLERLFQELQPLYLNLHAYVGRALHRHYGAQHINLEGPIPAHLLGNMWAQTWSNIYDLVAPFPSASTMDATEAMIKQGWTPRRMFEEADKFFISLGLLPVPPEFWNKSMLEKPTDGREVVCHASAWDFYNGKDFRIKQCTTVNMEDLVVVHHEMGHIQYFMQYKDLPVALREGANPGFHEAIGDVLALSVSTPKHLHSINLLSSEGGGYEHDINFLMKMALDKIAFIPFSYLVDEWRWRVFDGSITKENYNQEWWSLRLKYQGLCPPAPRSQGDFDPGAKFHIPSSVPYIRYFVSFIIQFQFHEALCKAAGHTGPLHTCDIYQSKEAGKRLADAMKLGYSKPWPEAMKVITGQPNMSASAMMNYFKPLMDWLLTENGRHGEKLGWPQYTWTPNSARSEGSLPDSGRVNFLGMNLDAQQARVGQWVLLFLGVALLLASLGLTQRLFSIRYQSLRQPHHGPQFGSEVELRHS
In words: ACE inhibition activity (hippuroylhistidylleucine substrate, hippuric acid absorbance at 228 nm). The assay is classed as biochemical, rabbit. The settings on record: concentration at which the inhibition rate (E2) was found; not 50%. As to the method: The ACE inhibition activity of the thus obtained present oligopeptides was measured as follows. Namely, first, 5 g of rabbit lung acetone powder was dissolved in 50 ml of 0.1M sodium borate buffer (pH 8.3), the solution was centrifuged under the conditions of 40,000 G for 40 minutes, and the supernatant was further purified with hydroxyapatite to obtain an angiotensin converting enzyme solution having an enzyme activity of 1 unit/mg protein.
0.03 ml portions of aqueous solutions containing in various concentrations any one of the present oligopeptides was placed in test tubes, 0.25 ml portions of hippuroylhistidylleucine (final concentration 5 mM; containing 300 mM NaCl) were added thereto, 0.1 ml portions of the above angiotensin converting enzyme solution were added, and reactions were carried out at 37° C. for 30 minutes.
Plural of such an experiment were conducted and the inhibition rate was calculated by the following equation: [formula]
On to `CC(C)C[C@@H](N)C(=O)N[C@@H](CCCNC(=N)N)C(=O)N1CCC[C@H]1C(=O)O` [D--Leu--L--Arg--L--Pro, D-Leu-L-Arg-L-Pro] (H-[dL]-Arg-Pro-OH), for which the “Concentration giving the inhibition rate” value amounted to 45 µM.

For `CC(C)C[C@H](N)C(=O)NCC(=O)N1CCC[C@H]1C(=O)O` [L--Leu--Gly--L--Pro, L-Leu-Gly-L-Pro] (H-Leu-Gly-Pro-OH), the “Concentration giving the inhibition rate” value was 60 µM.

For the molecule `CC(C)C[C@H](N)C(=O)N[C@@H](CC(=O)O)C(=O)N1CCC[C@H]1C(=O)O` [L--Leu--L--Asp--L--Pro, L-Leu-L-Asp-L-Pro] (H-Leu-Asp-Pro-OH), the “Concentration giving the inhibition rate” value was determined as 182 µM.

As to `CC(C)C[C@H](N)C(=O)N[C@@H](CCC(=O)O)C(=O)N1CCC[C@H]1C(=O)O` [L--Leu--L--Glu--L--Pro, L-Leu-L-Glu-L-Pro] (H-Leu-Glu-Pro-OH), the “Concentration giving the inhibition rate” value amounted to 24 µM.

Consider `CC(C)C[C@H](N)C(=O)N[C@H](C(=O)N1CCC[C@H]1C(=O)O)[C@@H](C)O` [L--Leu--L--Thr--L--Pro, L-Leu-L-Thr-L-Pro] (H-Leu-Thr-Pro-OH), for which the “Concentration giving the inhibition rate” value came to 3.4 µM.

As for `CC(C)C[C@H](N)C(=O)N[C@@H](Cc1ccc(O)cc1)C(=O)N1CCC[C@H]1C(=O)O` [L--Leu--L--Tyr--L--Pro, L-Leu-L-Tyr-L-Pro] (H-Leu-Tyr-Pro-OH), the “Concentration giving the inhibition rate” value turned out to be 12 µM.

The same assay, now with this note: line prints 50% inhibition rate instead of the word IC50; read-out: Concentration giving the inhibition rate (50%).
On to `CC(C)C[C@H](N)C(=O)N[C@@H](C)C(=O)N1CCC[C@H]1C(=O)O` [L--Leu--L--Ala--L--Pro, L-Leu-L-Ala-L-Pro] (H-Leu-Ala-Pro-OH), for which the IC50 stood at 1.4 µM.

As for `CC(C)C[C@H](N)C(=O)N[C@@H](Cc1c[nH]cn1)C(=O)N1CCC[C@H]1C(=O)O` [L--Leu--L--His--L--Pro, L-Leu-L-His-L-Pro] (H-Leu-His-Pro-OH), the IC50 came to 80 µM.

For `CC(C)C[C@H](N)C(=O)N[C@@H](CCCCN)C(=O)N1CCC[C@H]1C(=O)O` [L--Leu--L--Lys--L--Pro, L-Leu-L-Lys-L-Pro] (H-Leu-Lys-Pro-OH), the IC50 is 0.6 µM.

Staying with this assay, now noted: rabbit lung ACE, 5 mM hippuroylhistidylleucine, 37° C. 30 minutes; read-out: IC50.
For the molecule `CC[C@H](C)[C@H](N)C(=O)N[C@@H](CCCNC(=N)N)C(=O)N[C@@H](C)C(=O)N[C@@H](CCC(N)=O)C(=O)N[C@@H](CCC(N)=O)C(=O)O` [L--Ile--Arg--L--Ala--L--Gln--L--Gln, L-Ile-L-Arg-L-Ala-L-Gln-L-Gln] (H-IRAQQ-OH), the IC50 turned out to be 160 µM.

`CC[C@H](C)[C@H](N)C(=O)N[C@@H](CCCNC(=N)N)C(=O)N[C@@H](C)C(=O)O` [L--Ile--L--Arg--L--Ala, L-Ile-L-Arg-L-Ala] (H-Ile-Arg-Ala-OH): the IC50 was found to be 6.4 µM.

Consider `CC(C)C[C@H](N)C(=O)N[C@@H](C)C(=O)N[C@@H](C)C(=O)O` [L--Leu--L--Ala--L--Ala, L-Leu-L-Ala-L-Ala] (H-Leu-Ala-Ala-OH), for which the IC50 was determined as 13 µM.

For the molecule `CC(C)C[C@H](N)C(=O)N[C@@H](CCCN=C(N)N)C(=O)N1CCC[C@H]1C(=O)O` [L--Leu--L--Arg--L--Pro, L-Leu-L-Arg-L-Pro] (H-Leu-Arg-Pro-OH), the IC50 is 0.27 µM.

With `CC(C)C[C@H](N)C(=O)N[C@@H](CC(N)=O)C(=O)N1CCC[C@H]1C(=O)O` [L--Leu--L--Asn--L--Pro, L-Leu-L-Asn-L-Pro] (H-Leu-Asn-Pro-OH), the IC50 was found to be 35 µM.

Consider `CC(C)C[C@H](N)C(=O)N[C@@H](CCC(N)=O)C(=O)N1CCC[C@H]1C(=O)O` [L--Leu--L--Gln--L-- Pro, L-Leu-L-Gln-L-Pro] (H-Leu-Gln-Pro-OH), for which the IC50 worked out at 1.9 µM.

For `CC(C)C[C@H](N)C(=O)N[C@@H](CCC(N)=O)C(=O)N[C@@H](CCC(N)=O)C(=O)O` [L--Leu--L--Gln--L--Gln, L-Leu-L-Gln-L-Gln] (H-Leu-Gln-Gln-OH), the IC50 was 100 µM.

For `CC(C)C[C@H](NC(=O)[C@@H](N)CC(C)C)C(=O)N1CCC[C@H]1C(=O)O` [L--Leu--L--Leu--L--Pro, L-Leu-L-Leu-L-Pro] (H-Leu-Leu-Pro-OH), the IC50 was determined as 57 µM.

With `CC(C)C[C@H](N)C(=O)N[C@@H](CO)C(=O)N1CCC[C@H]1C(=O)O` [L--Leu--L--Ser--L--Pro, L-Leu-L-Ser-L-Pro] (H-Leu-Ser-Pro-OH), the IC50 was determined as 1.7 µM.

`CC(C)C[C@H](NC(=O)[C@@H](N)Cc1ccccc1)C(=O)N1CCC[C@H]1C(=O)O` [L--Phe--L--Leu--L--Pro, L-Phe-L-Leu-L-Pro] (H-Phe-Leu-Pro-OH): the IC50 was 210 µM.

`N[C@@H](Cc1ccccc1)C(=O)N[C@@H](Cc1ccc(O)cc1)C(=O)O` [L--Phe--L--Tyr, L-Phe-L-Tyr] (H-Phe-Tyr-OH): the IC50 came to 25 µM.

Regarding `CC(C)[C@H](N)C(=O)N[C@@H](C)C(=O)N[C@@H](C)C(=O)O` [L--Val--L--Ala--L--Ala, L-Val-L-Ala-L-Ala] (H-Val-Ala-Ala-OH), the IC50 came out at 13 µM.

With `CC(C)[C@H](N)C(=O)N[C@@H](C)C(=O)N[C@@H](Cc1ccc(O)cc1)C(=O)O` [L--Val--L--Ala--L--Tyr, L-Val-L-Ala-L-Tyr] (H-Val-Ala-Tyr-OH), the IC50 was determined as 16 µM.

`CC(C)[C@H](N)C(=O)N[C@@H](CO)C(=O)N1CCC[C@H]1C(=O)O` [L--Val--L--Ser--Ser--L--Pro, L-Val-L-Ser-L-Pro] (H-Val-Ser-Pro-OH; N-terminus and C-terminus assumed): the IC50 was 10 µM.
